SMILES strings stand for the structures. Where two headings read alike, the source gives them in different places.

This is an account of results in patent publication US11208412B2 (DAEGU-GYEONGBUK MEDICAL INNOVATION FOUNDATION, priority 2017, dated 2021).

Common to all, as to assay: Kinase selectivity, DiscoverX scanMAX Kinase assay panel (% control)
Holding throughout (assay type): binding

Experiment [1] has as its target T1, kinases of the scanMAX Kinase assay panel (Homo sapiens, UniProt P27037).
T1 construct: purchased DiscoverX Co. (contract measurement) scanMAX Kinase assay panel
To be noted: ACVR2A; 1 uM. In short, it runs like this: (§1)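 Compounds tested at 1 uM against the scanMAX kinase panel. Signal expressed as % control = (compound − positive control)/(DMSO negative control − positive control) × 100, where positive control = 0% and DMSO = 100%; below 35% counted as activity on that kinase.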

Experiment [2] has as its target T2, kinases of the scanMAX Kinase assay panel (Homo sapiens, UniProt P42685).
T2 construct: purchased DiscoverX Co. (contract measurement) scanMAX Kinase assay panel
To be noted: FRK; 1 uM. Put shortly: as §1

Experiment [3] addresses T3, kinases of the scanMAX Kinase assay panel (Homo sapiens, UniProt P10721, V559D/V654A).
T3 construct: purchased DiscoverX Co. (contract measurement) scanMAX Kinase assay panel
The settings on record: KIT(V559D, V654A); 1 uM. In short, it runs like this: as §1

Experiment [4] concerns the target T4, kinases of the scanMAX Kinase assay panel (Homo sapiens, UniProt P36897).
T4 construct: purchased DiscoverX Co. (contract measurement) scanMAX Kinase assay panel
T4 sequence (P36897 34-503): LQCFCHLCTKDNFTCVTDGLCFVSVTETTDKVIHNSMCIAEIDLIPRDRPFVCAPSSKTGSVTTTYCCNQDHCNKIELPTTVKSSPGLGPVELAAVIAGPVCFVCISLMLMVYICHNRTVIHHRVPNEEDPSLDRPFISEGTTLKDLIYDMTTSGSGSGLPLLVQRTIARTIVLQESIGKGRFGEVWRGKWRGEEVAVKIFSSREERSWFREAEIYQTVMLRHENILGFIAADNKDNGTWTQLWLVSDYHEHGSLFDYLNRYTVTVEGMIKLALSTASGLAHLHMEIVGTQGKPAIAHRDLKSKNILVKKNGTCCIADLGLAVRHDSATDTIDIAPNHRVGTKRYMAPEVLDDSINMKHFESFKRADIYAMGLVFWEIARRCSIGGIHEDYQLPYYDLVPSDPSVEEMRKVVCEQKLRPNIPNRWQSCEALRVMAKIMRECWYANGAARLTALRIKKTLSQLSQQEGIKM
The settings on record: kinase TGFBR1; 1 uM in DMSO. Put shortly: as §1

In experiment [5] the target is T5, kinases of the scanMAX Kinase assay panel (Homo sapiens, UniProt P0C1S8).
T5 construct: purchased DiscoverX Co. (contract measurement) scanMAX Kinase assay panel
To be noted: kinase WEE2; 1 uM in DMSO. In short, it runs like this:
as §1

Experiment [6] addresses T6, kinases of the scanMAX Kinase assay panel (Homo sapiens, UniProt P16234).
T6 construct: purchased DiscoverX Co. (contract measurement) scanMAX Kinase assay panel
To be noted: PDGFRA; 1 uM. In short, it runs like this:
as §1

In experiment [7] the target is T7, kinases of the scanMAX Kinase assay panel (Homo sapiens, UniProt P49759).
T7 construct: purchased DiscoverX Co. (contract measurement) scanMAX Kinase assay panel
To be noted: CLK1; 1 uM. Put shortly:
as §1

Experiment [8] addresses T8, kinases of the scanMAX Kinase assay panel (Homo sapiens, UniProt P10721, D816H).
T8 construct: purchased DiscoverX Co. (contract measurement) scanMAX Kinase assay panel
To be noted: KIT(D816H); 1 uM. In short, it runs like this: as §1

Experiment [9] deals with T9, kinases of the scanMAX Kinase assay panel (Homo sapiens, UniProt O75582).
T9 construct: purchased DiscoverX Co. (contract measurement) scanMAX Kinase assay panel
To be noted: 1 uM in DMSO. Put shortly:
as §1

The target in experiment [10] is T10, kinases of the scanMAX Kinase assay panel (Homo sapiens, UniProt Q06187).
T10 construct: purchased DiscoverX Co. (contract measurement) scanMAX Kinase assay panel
The settings on record: BTK; 1 uM. In short, it runs like this:
as §1

The target of experiment [11] is T11, kinases of the scanMAX Kinase assay panel (Homo sapiens, UniProt P31751).
T11 construct: purchased DiscoverX Co. (contract measurement) scanMAX Kinase assay panel
The settings on record: AKT2; 1 uM. Put shortly: as §1

Experiment [12] deals with T12, kinases of the scanMAX Kinase assay panel (Homo sapiens, UniProt Q99759).
T12 construct: purchased DiscoverX Co. (contract measurement) scanMAX Kinase assay panel
T12 sequence (Q99759 1-626): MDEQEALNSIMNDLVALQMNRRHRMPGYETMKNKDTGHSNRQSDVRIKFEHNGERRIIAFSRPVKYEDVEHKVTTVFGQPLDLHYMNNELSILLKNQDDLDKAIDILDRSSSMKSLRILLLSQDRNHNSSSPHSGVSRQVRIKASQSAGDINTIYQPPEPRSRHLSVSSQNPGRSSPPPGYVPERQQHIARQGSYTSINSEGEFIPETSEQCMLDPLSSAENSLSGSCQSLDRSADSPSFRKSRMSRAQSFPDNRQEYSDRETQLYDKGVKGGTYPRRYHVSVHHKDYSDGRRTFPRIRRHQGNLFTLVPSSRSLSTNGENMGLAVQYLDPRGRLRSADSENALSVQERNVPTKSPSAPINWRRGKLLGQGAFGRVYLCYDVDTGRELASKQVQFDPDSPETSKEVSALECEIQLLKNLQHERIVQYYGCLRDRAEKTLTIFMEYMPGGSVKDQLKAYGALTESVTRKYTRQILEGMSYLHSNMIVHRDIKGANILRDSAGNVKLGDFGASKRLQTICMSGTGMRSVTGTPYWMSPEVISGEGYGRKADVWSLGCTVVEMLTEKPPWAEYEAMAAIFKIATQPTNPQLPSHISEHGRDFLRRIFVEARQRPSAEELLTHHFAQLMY
The settings on record: MAP3K3; 1 uM. Put shortly:
as §1

Setting [13] is: kinase RPS6KA5(Kin.Dom.1-N-terminal), read-out: % control, RPS6KA5(Kin.Dom.1-N-terminal).
Setting [14] is: kinase RPS6KA5(Kin.Dom.2-C-terminal), read-out: % control, RPS6KA5(Kin.Dom.2-C-terminal).

T5 sequence (P0C1S8 whole entry): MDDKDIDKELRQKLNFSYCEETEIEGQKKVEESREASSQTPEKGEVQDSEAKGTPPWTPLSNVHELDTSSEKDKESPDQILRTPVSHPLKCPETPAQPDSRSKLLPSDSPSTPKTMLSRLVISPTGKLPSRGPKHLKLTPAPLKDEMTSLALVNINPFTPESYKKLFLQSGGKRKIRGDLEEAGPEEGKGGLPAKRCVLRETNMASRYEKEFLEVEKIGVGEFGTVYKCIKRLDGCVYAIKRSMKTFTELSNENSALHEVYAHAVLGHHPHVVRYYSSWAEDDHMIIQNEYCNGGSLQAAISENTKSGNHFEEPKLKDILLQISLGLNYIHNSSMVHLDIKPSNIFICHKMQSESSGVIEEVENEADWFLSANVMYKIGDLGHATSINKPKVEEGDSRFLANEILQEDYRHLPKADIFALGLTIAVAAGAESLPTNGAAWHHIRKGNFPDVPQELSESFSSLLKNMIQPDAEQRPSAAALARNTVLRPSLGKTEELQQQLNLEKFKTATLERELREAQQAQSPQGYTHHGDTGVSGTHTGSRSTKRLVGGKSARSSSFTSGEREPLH
T10 sequence (Q06187 whole entry): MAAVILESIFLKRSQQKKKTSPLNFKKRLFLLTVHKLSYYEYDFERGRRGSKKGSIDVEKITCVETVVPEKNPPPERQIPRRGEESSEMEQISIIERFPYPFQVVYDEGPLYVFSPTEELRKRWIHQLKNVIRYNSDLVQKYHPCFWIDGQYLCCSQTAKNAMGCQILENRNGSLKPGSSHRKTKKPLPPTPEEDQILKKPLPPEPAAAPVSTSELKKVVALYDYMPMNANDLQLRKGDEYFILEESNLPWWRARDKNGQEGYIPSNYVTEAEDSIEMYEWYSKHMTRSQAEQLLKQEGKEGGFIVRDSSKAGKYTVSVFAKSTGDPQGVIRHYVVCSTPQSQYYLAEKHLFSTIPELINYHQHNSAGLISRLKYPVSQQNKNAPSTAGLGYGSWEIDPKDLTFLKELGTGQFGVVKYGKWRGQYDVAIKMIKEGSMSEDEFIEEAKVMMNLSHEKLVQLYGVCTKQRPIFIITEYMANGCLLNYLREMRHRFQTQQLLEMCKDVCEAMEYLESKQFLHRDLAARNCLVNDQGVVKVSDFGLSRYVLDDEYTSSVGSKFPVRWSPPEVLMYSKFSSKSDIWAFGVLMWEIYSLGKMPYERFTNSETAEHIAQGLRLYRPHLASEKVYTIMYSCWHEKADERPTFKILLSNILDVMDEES
T9 sequence (O75582 whole entry): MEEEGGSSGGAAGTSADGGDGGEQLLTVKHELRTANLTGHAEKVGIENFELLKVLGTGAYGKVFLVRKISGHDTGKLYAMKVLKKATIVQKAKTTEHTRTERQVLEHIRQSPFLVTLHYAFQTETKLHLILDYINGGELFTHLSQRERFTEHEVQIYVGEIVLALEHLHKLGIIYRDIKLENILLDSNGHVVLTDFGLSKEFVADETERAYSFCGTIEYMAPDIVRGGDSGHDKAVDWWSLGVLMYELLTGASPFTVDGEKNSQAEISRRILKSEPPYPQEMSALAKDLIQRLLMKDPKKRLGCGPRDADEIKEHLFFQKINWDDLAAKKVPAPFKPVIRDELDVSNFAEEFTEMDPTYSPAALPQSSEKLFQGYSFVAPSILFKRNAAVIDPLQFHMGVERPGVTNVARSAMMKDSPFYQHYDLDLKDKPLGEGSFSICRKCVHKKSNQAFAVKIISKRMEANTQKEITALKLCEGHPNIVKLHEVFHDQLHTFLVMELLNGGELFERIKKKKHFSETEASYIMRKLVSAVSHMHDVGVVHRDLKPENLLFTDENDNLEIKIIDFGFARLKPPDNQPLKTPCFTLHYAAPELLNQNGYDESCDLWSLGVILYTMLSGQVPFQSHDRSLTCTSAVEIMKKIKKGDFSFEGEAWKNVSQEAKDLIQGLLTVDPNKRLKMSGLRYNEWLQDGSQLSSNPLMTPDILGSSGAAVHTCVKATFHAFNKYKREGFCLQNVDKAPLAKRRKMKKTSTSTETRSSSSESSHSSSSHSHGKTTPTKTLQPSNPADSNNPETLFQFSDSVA
T1 sequence (P27037 20-513): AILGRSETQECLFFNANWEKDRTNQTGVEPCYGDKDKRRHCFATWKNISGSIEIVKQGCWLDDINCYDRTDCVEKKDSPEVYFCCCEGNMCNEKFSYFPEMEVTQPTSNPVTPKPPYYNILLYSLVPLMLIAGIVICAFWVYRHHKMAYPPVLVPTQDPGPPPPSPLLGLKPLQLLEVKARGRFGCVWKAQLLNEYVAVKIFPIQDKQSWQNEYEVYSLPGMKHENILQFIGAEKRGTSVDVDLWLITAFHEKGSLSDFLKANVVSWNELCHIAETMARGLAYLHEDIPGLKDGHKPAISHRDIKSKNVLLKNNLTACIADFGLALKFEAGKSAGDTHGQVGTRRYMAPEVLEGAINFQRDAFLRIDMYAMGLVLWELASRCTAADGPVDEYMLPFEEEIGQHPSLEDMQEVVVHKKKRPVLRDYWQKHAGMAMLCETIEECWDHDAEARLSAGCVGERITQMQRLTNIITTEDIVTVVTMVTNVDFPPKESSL
T11 sequence (P31751 whole entry): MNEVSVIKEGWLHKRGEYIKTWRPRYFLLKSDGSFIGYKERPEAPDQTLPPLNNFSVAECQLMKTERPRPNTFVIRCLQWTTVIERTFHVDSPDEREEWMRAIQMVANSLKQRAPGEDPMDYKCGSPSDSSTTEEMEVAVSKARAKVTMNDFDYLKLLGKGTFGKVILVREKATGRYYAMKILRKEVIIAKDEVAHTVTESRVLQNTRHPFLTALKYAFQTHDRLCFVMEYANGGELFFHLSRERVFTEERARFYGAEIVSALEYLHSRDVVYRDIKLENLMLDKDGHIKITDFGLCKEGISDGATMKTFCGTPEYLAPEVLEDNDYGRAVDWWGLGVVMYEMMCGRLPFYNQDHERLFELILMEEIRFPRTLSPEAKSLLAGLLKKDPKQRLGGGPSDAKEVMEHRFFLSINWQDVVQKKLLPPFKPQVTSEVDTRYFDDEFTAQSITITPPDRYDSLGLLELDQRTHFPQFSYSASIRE
T7 sequence (P49759 whole entry): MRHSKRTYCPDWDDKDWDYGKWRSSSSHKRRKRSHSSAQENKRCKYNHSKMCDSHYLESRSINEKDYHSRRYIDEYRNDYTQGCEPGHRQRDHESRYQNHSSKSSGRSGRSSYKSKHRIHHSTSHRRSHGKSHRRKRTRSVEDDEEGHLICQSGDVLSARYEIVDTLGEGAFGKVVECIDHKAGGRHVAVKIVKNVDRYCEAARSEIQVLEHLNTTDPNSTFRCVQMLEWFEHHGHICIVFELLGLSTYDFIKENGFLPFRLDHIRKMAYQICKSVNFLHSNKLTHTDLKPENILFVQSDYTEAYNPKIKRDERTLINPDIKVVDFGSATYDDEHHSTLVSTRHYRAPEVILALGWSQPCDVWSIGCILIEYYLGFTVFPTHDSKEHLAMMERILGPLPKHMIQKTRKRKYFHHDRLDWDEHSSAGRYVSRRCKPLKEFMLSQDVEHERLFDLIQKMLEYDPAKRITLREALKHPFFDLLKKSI
T2 sequence (P42685 whole entry): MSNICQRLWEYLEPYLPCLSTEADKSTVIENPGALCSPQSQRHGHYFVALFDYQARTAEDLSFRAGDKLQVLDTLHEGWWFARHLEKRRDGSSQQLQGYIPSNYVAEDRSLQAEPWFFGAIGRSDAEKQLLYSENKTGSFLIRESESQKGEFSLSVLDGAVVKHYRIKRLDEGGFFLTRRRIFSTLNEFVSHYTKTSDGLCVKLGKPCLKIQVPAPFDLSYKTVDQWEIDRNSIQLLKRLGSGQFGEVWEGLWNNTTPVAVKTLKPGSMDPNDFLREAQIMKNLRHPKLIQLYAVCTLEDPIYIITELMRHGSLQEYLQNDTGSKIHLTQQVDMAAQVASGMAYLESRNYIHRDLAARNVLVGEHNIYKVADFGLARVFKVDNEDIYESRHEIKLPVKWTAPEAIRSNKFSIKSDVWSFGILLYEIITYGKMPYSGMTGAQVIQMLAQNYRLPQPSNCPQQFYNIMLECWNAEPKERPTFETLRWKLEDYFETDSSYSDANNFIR
T8 sequence (P10721 26-976 D816H): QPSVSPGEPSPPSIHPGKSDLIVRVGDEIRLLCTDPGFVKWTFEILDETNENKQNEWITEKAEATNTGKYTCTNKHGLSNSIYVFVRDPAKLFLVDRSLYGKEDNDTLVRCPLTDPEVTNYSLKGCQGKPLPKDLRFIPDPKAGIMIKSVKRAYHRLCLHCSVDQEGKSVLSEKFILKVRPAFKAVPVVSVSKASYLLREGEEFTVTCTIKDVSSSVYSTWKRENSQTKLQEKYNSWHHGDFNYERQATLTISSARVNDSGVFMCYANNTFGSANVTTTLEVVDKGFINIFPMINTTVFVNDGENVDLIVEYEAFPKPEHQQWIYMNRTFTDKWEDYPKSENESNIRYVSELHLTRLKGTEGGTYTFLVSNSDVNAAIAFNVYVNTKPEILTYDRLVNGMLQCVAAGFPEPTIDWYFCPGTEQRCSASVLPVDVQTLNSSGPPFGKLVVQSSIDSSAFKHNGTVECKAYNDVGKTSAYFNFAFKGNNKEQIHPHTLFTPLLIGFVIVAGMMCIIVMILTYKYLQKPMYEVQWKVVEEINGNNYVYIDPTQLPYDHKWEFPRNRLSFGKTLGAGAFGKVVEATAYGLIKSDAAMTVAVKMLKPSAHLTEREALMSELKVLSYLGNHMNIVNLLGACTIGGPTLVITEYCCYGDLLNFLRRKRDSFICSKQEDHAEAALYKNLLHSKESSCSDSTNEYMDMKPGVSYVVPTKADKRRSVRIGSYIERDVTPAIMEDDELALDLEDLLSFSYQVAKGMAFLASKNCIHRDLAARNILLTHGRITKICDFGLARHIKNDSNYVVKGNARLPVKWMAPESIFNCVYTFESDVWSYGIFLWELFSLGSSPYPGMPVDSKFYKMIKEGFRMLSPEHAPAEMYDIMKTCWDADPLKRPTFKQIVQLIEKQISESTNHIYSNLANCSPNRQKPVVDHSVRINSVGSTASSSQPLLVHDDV
T3 sequence (P10721 26-976 V559D/V654A): as the sequence (P10721 26-976 D816H) above, with V534D, V629A, H791D counted along it

As for `CNc1nc(Nc2ccc(C(=O)N3CCOCC3)cc2OC)nc2[nH]cc(C#N)c12` [Example 1, 2-((2-methoxy-4-(morpholine-4-carbonyl)phenyl)amino)-4-(methylamino)-7H-pyrrolo[2,3-d]pyrimidine-5-carbonitrile], the remaining binding at 1 µM in [1] was 100%; in experiment [2] it was 97%; in [3], 76%; in [4], 5.1%; in [5], 100%; in experiment [6], 15%. Besides, the remaining binding at 1 µM worked out at 1.8% in experiment [7]; 77% in [8]; 94% in experiment [9] (setting [13]); 12% in experiment [9] (setting [14]); 72% in experiment [10]; 86% in [11]. The remaining binding at 1 µM in [12] was 98%.
With `CC1(Nc2nc(Nc3cnn([C@H]4CCN(C5COC5)C[C@@H]4F)c3Cl)nc3[nH]cc(C#N)c23)CC1` [Example 52, 2-((5-chloro-1-((3S,4S)-3-fluoro-1-(oxetane-3-yl)piperidine-4-yl)-1H-pyrazole-4-yl)amino)((1-methylcyclopropyl)amino)-7H-pyrrolo[2,3-d]pyrimidine-5-carbonitrile], the remaining binding at 1 µM was found to be 98% in experiment [1]; 49% in experiment [2]; 0.9% in experiment [3]; 91% in experiment [4]; 100% in experiment [5]; 9.7% in [6]. For the same compound, the remaining binding at 1 µM in experiment [7] is 0.6%; in experiment [8], 8.1%; in experiment [9] (setting [13]), 100%; in experiment [9] (setting [14]) it was 24%; in experiment [10], 9.1%; in experiment [11], 100%. The compound also returned a remaining binding at 1 µM in experiment [12] of 0.1%.
For `CCNc1nc(Nc2ccc(C(=O)N3CCC(N4CCOCC4)CC3)cc2OC)nc2[nH]cc(C(F)(F)F)c12` [Example 104, (4-((4-(ethylamino)-5-(trifluoromethyl)-7H-pyrrolo[2,3-d]pyrimidine-2-yl)amino)-3-methoxyphenyl)(4-morpholinopiperidine-1-yl)methanone], the remaining binding at 1 µM in experiment [1] amounted to 100%; in experiment [2], 77%; in experiment [3], 94%; in experiment [4] it was 100%; in [5], 100%; in [6], 88%. For the same compound, the remaining binding at 1 µM came to 0.15% in [7]; 100% in experiment [8]; 100% in [9] (setting [13]); 83% in experiment [9] (setting [14]); 100% in experiment [10]; 94% in [11]. The compound further displayed a remaining binding at 1 µM in [12] of 87%.
